Tested on: ovalbumin-induced pulmonary inflammation
Assay: Murine model of ovalbumin-induced pulmonary inflammation (BALF cell counts and mediators)
Type: in vivo, mouse (female Balb/c)
Procedure: A study was performed to investigate the effects of daily oral administration of the compound 2-((R)-3-(1-(1-((R)-1-(2,4-Dichlorophenyl)ethyl)-3-(cyano)-1H-pyrazolo[3,4-b]pyrazin-6-yl)azetidin-3-yl)piperidin-1-yl)ethan-1-ol (FLX-A-12) (disclosed in US Patent Publication 2018-0072740 published Mar. 15, 2018) and the compound (1R,3r)-3-((R)-3-(1-(5-chloro-4-(((R)-1-(2,4-dichlorophenyl)ethyl)amino)-6-methylpyrimidin-2-yl)azetidin-3-yl)piperidin-1-yl)-1-methylcyclobutane-1-carboxylic acid (FLX-B-10) (disclosed in Example 38 herein) on the level of lung eosinophilia in a murine model of ovalbumin-induced pulmonary inflammation. An automated system of haematological cellular analysis (DASIT Sysmex XT-2000iV) was used to perform total and differential cell counts and assess the degree of ovalbumin challenge-induced pulmonary eosinophilia. FLX-A-12 and FLX-B-10 were administered daily for five days at the doses of 50 and 30-100 mg/kg respectively, and eosinophilic inflammation was measured 24 hours after the last ovalbumin challenge. Dexamethasone was included as a positive reference substance (3 mg/kg p.o. daily). On days 20-23 inclusive, mice received vehicle (30% PG in water), reference compound (Dexamethasone, 3 mg/kg) and test compounds (FLX-A-12 at 50 mg/kg and FLX-B-10 at 30 and 100 mg/kg), 1 hr prior ovalbumin challenge via the p.o. route. In addition, the test compounds (FLX-A-12 and FLX-B-10) were dosed on day 19 24 hr prior to the dosing on day 20.
FLX-A-12 was formulated at the concentration of 5 mg/mL (corresponding to the dose of 50 mg/kg in a dose volume of 10 mL/kg) in 30% PG in water. The doses of FLX-B-10 (30 and 100 mg/kg) were prepared by dissolving 3 and 10 mg/ml of the compound respectively in 30% PG in water at a dose volume of 10 ml/kg. The dose of Dexamethasone (3 mg/kg) was prepared by dissolving 0.3 mg/mL of the compound in 30% PG in water at a dose volume of 10 ml/kg.
The effects of FLX-A-12 and FLX-B-10 were assessed in the ovalbumin mouse model of pulmonary inflammation. The study was performed in female Balb/c mice, and included the following 6 treatment groups (n=10/group): (i) Vehicle group: challenged with saline and dosed with compound Vehicle, 1 hr before challenge; (ii) OVA/Vehicle group (control): challenged with ovalbumin and dosed with compound Vehicle, 1 hr before challenge; (iii) OVA/FLX-A-12 50 mg/kg (p.o.): challenged with ovalbumin and dosed with FLX-A-12, 1 hr before challenge; (iv) OVA/FLX-B-10 30 mg/kg (p.o.): challenged with ovalbumin and dosed with FLX-B-10, 1 hr before challenge; (v) OVA/FLX-B-10 100 mg/kg (p.o.): challenged with ovalbumin and dosed with FLX-B-10, 1 hr before challenge; and (vi) Dexamethasone 3 mg/kg (p.o.) group: challenged with ovalbumin and dosed with Dexamethasone, 1 hr before challenge.
The eosinophilic inflammation induced by ovalbumin-challenge (i.n.) was measured as cell count increase in bronchoalveolar lavage fluid (BALF) using an automated system of haematological cellular analysis (DASIT Sysmex XT-2000iV) at 24 hours after the last OVA-challenge. The effects of the test compounds were evaluated as ability to decrease the eosinophilic inflammation with respect to the OVA group.
For antigen sensitization, on day 1, animals received 10 μg of OVA in 2 mg of Aluminium hydroxide hydrate (AlOH3) at a dose volume of 200 μl per mouse subcutaneously (s.c.). On day 14, all animals got a second (boost) s.c. injection with the same dose of Alum/OVA as above.
On days 20-23 inclusive, mice received vehicle, 30% PG in water, reference compound (Dexamethasone 3 mg/kg) and test compounds (FLX-A-12 at 50 mg/kg and FLX-B-10 at 30 and 100 mg/kg), 1 hr prior OVA challenge via the p.o. route. In addition, test compounds (FLX-A-12 and FLX-B-10) were dosed on day 19, 24 hr prior to the dosing on day 20. All compounds were administered at a dose volume of 10 ml/kg. Dose volumes were calculated based on individual animal weight. […]

Cc1nc(N2CC([C@H]3CCCN([C@H]4C[C@](C)(C(=O)O)C4)C3)C2)nc(N[C@H](C)c2ccc(Cl)cc2Cl)c1Cl [FLX-B-10, (1R,3r)-3-((R)-3-(1-(5-chloro-4-(((R)-1-(2,4-dichlorophenyl)ethyl)amino)-6-methylpyrimidin-2-yl)azetidin-3-yl)piperidin-1-yl)-1-methylcyclobutane-1-carboxylic acid]
CCL-22 in BALF (30 mg/kg p.o. (FIG. 6)): significantly reduced in all conditions, except for FLX-B-10 at 30 mg/kg | IL-5 levels in BALF (100 mg/kg p.o., vs OVA group (FIG. 3)): significantly reduced | IL-13 in BALF, dose dependence (30 and 100 mg/kg p.o. (FIG. 4)): dose-dependent decrease | CCL-22 in BALF, dose dependence (30 and 100 mg/kg p.o. (FIG. 6)): dose-dependent decrease | reduction of eosinophilic inflammation (BALF) with respect to the OVA group (30 and 100 mg/kg p.o., 24 hours after last ovalbumin challenge): statistically significant reduction of eosinophilic inflammation only at 100 mg/kg

Reference: patent US12098139B2, “Chemokine receptor modulators and uses thereof” (RAPT Therapeutics, Inc., priority 2018, dated 2024)
